Data: PubChem BioAssay (NCI)
Several values for one entry are separate records, joined by “and”; a condition that tells them apart may be missing. Equal entries are not always repeated.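 Compound exposure: 48 hours, 5 concentrations, 96-well plates. Abbreviation: GI50, concentration required for 50% inhibition of growth. At the TGI there is no net growth.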

Legend:
Experiment in all cases: NCI anticancer screen, dose series, 48 h
MDA-MB-435 = test system: MDA-MB-435
RXF 393 renal = test system: RXF 393 renal
A498 renal = test system: A498 renal
CAKI-1 renal = test system: CAKI-1 renal
K-562 leukemia = test system: K-562 leukemia
KM12 colon = test system: KM12 colon
SK-MEL-2 melanoma = test system: SK-MEL-2 melanoma
NCI-H460 lung = test system: NCI-H460 lung
SNB-75 CNS = test system: SNB-75 CNS
HOP-62 NSCLC = test system: HOP-62 NSCLC

## c1ccc(CC(NCCNC(Cc2ccccc2)c2ccccc2)c2ccccc2)cc1 (configuration not stated)
MDA-MB-435
  GI50: 0.817 µM
  TGI: 2.22 µM
RXF 393 renal
  GI50: 0.26 µM
  TGI: 0.705 µM
A498 renal
  GI50: 1.25 µM
  TGI: 2.66 µM
CAKI-1 renal
  GI50: 0.456 µM
  TGI: 2.44 µM
K-562 leukemia
  GI50: 0.307 µM
  TGI: 0.89 µM
KM12 colon
  GI50: 0.384 µM
  TGI: 1.52 µM
SK-MEL-2 melanoma
  GI50: 1.16 µM
  TGI: 2.57 µM
NCI-H460 lung
  GI50: 0.294 µM
  TGI: 0.719 µM
SNB-75 CNS
  GI50: 1.43 µM
  TGI: 4.56 µM
HOP-62 NSCLC
  GI50: 1.17 µM
  TGI: 2.86 µM

## O=C(Cc1ccc(/C=C/C(=O)c2ncc[nH]2)cc1)Nc1ccc(C(F)(F)F)cc1
MDA-MB-435
  GI50: 2.87 µM
  TGI: 11.6 µM
RXF 393 renal
  GI50: 3.75 µM
  TGI: 8.83 µM
A498 renal
  GI50: 4.73 µM
  TGI: 10 µM
CAKI-1 renal
  GI50: 4.43 µM
  TGI: 9.47 µM
K-562 leukemia
  GI50: 1.24 µM
  TGI: > 33.3 µM
KM12 colon
  GI50: 1.11 µM
  TGI: 4.27 µM
SK-MEL-2 melanoma
  GI50: 7.09 µM
  TGI: 16.7 µM
NCI-H460 lung
  GI50: 3.6 µM
  TGI: 10.7 µM
SNB-75 CNS
  GI50: 3.97 µM
  TGI: 9.12 µM
HOP-62 NSCLC
  GI50: 4.8 µM
  TGI: 12 µM

## COc1ccc(/C=C(/C(=O)n2cnnn2)c2cc(OC)c(OC)c(OC)c2)cc1
MDA-MB-435
  GI50: 0.614 µM
  TGI: 3.24 µM
RXF 393 renal
  GI50: 3.91 µM
  TGI: > 100 µM
A498 renal
  GI50: 4.26 µM
  TGI: > 100 µM
CAKI-1 renal
  GI50: 4.15 µM
  TGI: > 100 µM
K-562 leukemia
  GI50: 2.86 µM
  TGI: > 100 µM
KM12 colon
  GI50: 1.96 µM
  TGI: > 100 µM
SK-MEL-2 melanoma
  GI50: 6.64 µM
  TGI: > 100 µM
NCI-H460 lung
  GI50: 3.75 µM
  TGI: > 100 µM
SNB-75 CNS
  GI50: 3.34 µM
  TGI: > 100 µM
HOP-62 NSCLC
  GI50: 4.82 µM
  TGI: > 100 µM

## CC(C)(CO)N=Cc1ccccc1[O-].CC(C)(CO)N=Cc1ccccc1[O-].[Co+2]
MDA-MB-435
  GI50: 38.4 µM
  TGI: > 100 µM
RXF 393 renal
  GI50: > 100 µM
  TGI: > 100 µM
A498 renal
  GI50: > 100 µM
  TGI: > 100 µM
CAKI-1 renal
  GI50: 53.7 µM
  TGI: > 100 µM
K-562 leukemia
  GI50: 47.3 µM
  TGI: > 100 µM
KM12 colon
  GI50: > 97.8 µM
  TGI: > 100 µM
SK-MEL-2 melanoma
  GI50: > 76.5 µM
  TGI: > 100 µM
NCI-H460 lung
  GI50: > 100 µM
  TGI: > 100 µM
SNB-75 CNS
  GI50: > 86.4 µM
  TGI: > 100 µM
HOP-62 NSCLC
  GI50: > 100 µM
  TGI: > 100 µM

## Nc1ncnc2c1c(-c1ccc(Oc3ccccc3)cc1)nn2C[C@@H]1SSC[C@@H]1O
MDA-MB-435
  GI50: 0.101 µM
  TGI: 0.256 µM
RXF 393 renal
  GI50: 1.46 µM
  TGI: 5.6 µM
A498 renal
  GI50: 2.01 µM
  TGI: 5.35 µM
CAKI-1 renal
  GI50: 1.36 µM
  TGI: 5.01 µM
K-562 leukemia
  GI50: 0.295 µM
  TGI: 3.21 µM
KM12 colon
  GI50: 0.18 µM
  TGI: 12.1 µM
SK-MEL-2 melanoma
  GI50: 0.212 µM
  TGI: 0.502 µM
NCI-H460 lung
  GI50: 0.0286 µM
  TGI: 0.0807 µM
SNB-75 CNS
  GI50: 1.78 µM
  TGI: 7.56 µM
HOP-62 NSCLC
  GI50: 0.202 µM
  TGI: 1.24 µM

## CC[C@H](C)[C@H](NC(=O)[C@H]1CCCCN1C)C(=O)N(C)[C@H](C[C@@H](OC(C)=O)c1nc(C(=O)N[C@@H](Cc2ccccc2)C[C@H](C)C(=O)OC)cs1)C(C)C
MDA-MB-435
  GI50: < 0.0025 µM
  TGI: < 0.0025 µM
RXF 393 renal
  GI50: 0.0025 µM
  TGI: 22.7 µM
A498 renal
  GI50: 0.000267 µM and < 0.0025 µM
  TGI: < 0.0025 µM
CAKI-1 renal
  GI50: 0.000792 µM
K-562 leukemia
  GI50: 0.000278 µM and 0.0025 µM
  TGI: > 25 µM
KM12 colon
  TGI: > 25 µM
SK-MEL-2 melanoma
  GI50: 0.000463 µM and < 0.0025 µM
  TGI: < 0.0025 µM
NCI-H460 lung
  GI50: 0.000295 µM and 0.0025 µM
  TGI: > 25 µM
SNB-75 CNS
  GI50: 0.000335 µM and 0.0025 µM
HOP-62 NSCLC
  GI50: 0.00052 µM and 0.0025 µM
  TGI: > 25 µM

## Cn1cnc([N+](=O)[O-])c1Sc1nc(N)nc2nc[nH]c12
MDA-MB-435
  GI50: 3.31 µM
  TGI: > 100 µM
RXF 393 renal
  GI50: 5.09 µM
  TGI: > 91.7 µM
A498 renal
  GI50: > 23.7 µM
  TGI: > 100 µM
CAKI-1 renal
  GI50: 2.72 µM
  TGI: > 100 µM
K-562 leukemia
  GI50: 4.2 µM
  TGI: > 100 µM
KM12 colon
  GI50: 3.94 µM
  TGI: > 100 µM
SK-MEL-2 melanoma
  GI50: 6.16 µM
  TGI: > 100 µM
NCI-H460 lung
  GI50: 2.25 µM
  TGI: > 100 µM
SNB-75 CNS
  GI50: 1.08 µM
  TGI: > 100 µM
HOP-62 NSCLC
  GI50: 1.22 µM
  TGI: > 100 µM

## CN(C)C(=O)SC1=C(c2c(Cl)cccc2Cl)C(=O)c2ccccc21
MDA-MB-435
  GI50: 4.54 µM
  TGI: 15.9 µM
RXF 393 renal
  GI50: 4.18 µM
  TGI: 8.59 µM
A498 renal
  GI50: 16.1 µM
  TGI: 31.7 µM
CAKI-1 renal
  GI50: 2.15 µM
  TGI: 5.72 µM
K-562 leukemia
  GI50: 2.98 µM
  TGI: 14.8 µM
KM12 colon
  GI50: 14.8 µM
  TGI: 28.6 µM
SK-MEL-2 melanoma
  GI50: 7.12 µM
  TGI: 13.7 µM
NCI-H460 lung
  GI50: 17.4 µM
  TGI: 37.2 µM
SNB-75 CNS
  GI50: 7.94 µM
  TGI: 23.9 µM
HOP-62 NSCLC
  GI50: 18.7 µM
  TGI: 36.7 µM

## O=c1oc2ccc(F)cc2c(=O)n1-c1ccc(Br)cc1F
MDA-MB-435
  GI50: 0.623 µM
  TGI: 6.64 µM
RXF 393 renal
  GI50: 0.923 µM
  TGI: 4.66 µM
A498 renal
  GI50: 0.184 µM
  TGI: 0.72 µM
CAKI-1 renal
  GI50: 0.393 µM
  TGI: 3.69 µM
K-562 leukemia
  GI50: 0.422 µM
  TGI: > 100 µM
KM12 colon
  GI50: 2.23 µM
  TGI: 6.16 µM
SK-MEL-2 melanoma
  GI50: 0.46 µM
  TGI: 3.98 µM
NCI-H460 lung
  GI50: 0.574 µM
  TGI: 23.7 µM
SNB-75 CNS
  GI50: 0.252 µM
  TGI: 2.79 µM
HOP-62 NSCLC
  GI50: 1.64 µM
  TGI: 7.25 µM

## CCc1cccc(CC)c1/C=C/c1cncc(C(=O)NC)c1
MDA-MB-435
  GI50: 2.85 µM
  TGI: 10.5 µM
RXF 393 renal
  GI50: 5.87 µM
  TGI: 24.8 µM
A498 renal
  GI50: 8.68 µM
  TGI: > 22.2 µM
CAKI-1 renal
  GI50: 9.62 µM
  TGI: > 25 µM
K-562 leukemia
  GI50: 5.62 µM
  TGI: > 25 µM
KM12 colon
  GI50: 9.02 µM
  TGI: > 25 µM
SK-MEL-2 melanoma
  GI50: 10.9 µM
  TGI: > 22.6 µM
NCI-H460 lung
  GI50: 9.97 µM
  TGI: > 25 µM
SNB-75 CNS
  GI50: 7.08 µM
  TGI: > 25 µM
HOP-62 NSCLC
  GI50: 9.88 µM
  TGI: > 25 µM

## O=C(CCN1CCCC1)Nc1ccc2c(Nc3ccccc3)c3ccccc3nc2c1
MDA-MB-435
  GI50: 1.44 µM
  TGI: 2.84 µM
RXF 393 renal
  GI50: 0.981 µM
  TGI: 2.65 µM
A498 renal
  GI50: 0.864 µM
  TGI: 2.22 µM
CAKI-1 renal
  GI50: 0.397 µM
  TGI: 2.08 µM
K-562 leukemia
  GI50: 0.235 µM
  TGI: 1.2 µM
KM12 colon
  GI50: 0.546 µM
  TGI: 2.7 µM
SK-MEL-2 melanoma
  GI50: 1.69 µM
  TGI: 3.56 µM
NCI-H460 lung
  GI50: 0.0489 µM
  TGI: 1.2 µM
SNB-75 CNS
  GI50: 1.09 µM
  TGI: 2.33 µM
HOP-62 NSCLC
  GI50: 0.404 µM
  TGI: 2.51 µM

## COc1ccccc1/C=C\C(=O)c1ccccc1
MDA-MB-435
  GI50: 4.27 µM
  TGI: 16.5 µM
RXF 393 renal
  GI50: 13 µM
  TGI: 27.4 µM
A498 renal
  GI50: 16.3 µM
  TGI: 35.7 µM
CAKI-1 renal
  GI50: 3.68 µM
  TGI: 12.2 µM
K-562 leukemia
  GI50: 2.57 µM
  TGI: 13.9 µM
KM12 colon
  GI50: 2.79 µM
  TGI: 6.32 µM
SK-MEL-2 melanoma
  GI50: 4.36 µM
  TGI: 14.6 µM
NCI-H460 lung
  GI50: 5.75 µM
  TGI: 18.4 µM
SNB-75 CNS
  GI50: 13.6 µM
  TGI: 27 µM
HOP-62 NSCLC
  GI50: 17.3 µM
  TGI: 32.6 µM

## CN(C)C/C=C/C(=O)Nc1ccc(C(=O)N2CCC[C@@H](Nc3ncc(Cl)c(-c4c[nH]c5ccccc45)n3)C2)cc1
MDA-MB-435
  GI50: 0.0832 µM
  TGI: 1.23 µM
RXF 393 renal
  GI50: 0.115 µM
  TGI: 0.561 µM
A498 renal
  GI50: 0.192 µM
  TGI: 0.495 µM
CAKI-1 renal
  GI50: 1.65 µM
  TGI: 12.1 µM
K-562 leukemia
  GI50: 0.0863 µM
  TGI: > 100 µM
KM12 colon
  GI50: 0.371 µM
  TGI: 12.1 µM
SK-MEL-2 melanoma
  GI50: 0.115 µM
  TGI: 0.392 µM
NCI-H460 lung
  GI50: 0.498 µM
  TGI: 5.62 µM
SNB-75 CNS
  GI50: 0.0978 µM
  TGI: 0.444 µM
HOP-62 NSCLC
  GI50: 0.432 µM
  TGI: 5.74 µM

## Cn1cc(CO)c2ccccc21
MDA-MB-435
  GI50: 3.45 µM
  TGI: 21 µM
RXF 393 renal
  GI50: 49.7 µM
  TGI: > 100 µM
A498 renal
  GI50: 17.6 µM
  TGI: 73.1 µM
CAKI-1 renal
  GI50: 18.3 µM
  TGI: > 100 µM
K-562 leukemia
  GI50: 17.5 µM
  TGI: > 100 µM
KM12 colon
  GI50: 15.9 µM
  TGI: 88.5 µM
SK-MEL-2 melanoma
  GI50: 36.2 µM
  TGI: > 100 µM
NCI-H460 lung
  GI50: 30.7 µM
  TGI: > 100 µM
SNB-75 CNS
  GI50: 27.6 µM
  TGI: > 100 µM
HOP-62 NSCLC
  GI50: 73.8 µM
  TGI: > 100 µM
